From patent US20160262390A1, “FIELD APPLICATION OF SUGARS TO INCREASE CROP YIELD” (Minn-Dak Farmers Cooperative, priority 2015, published 2016)

What was measured:
[1] = tested on: sugarbeets; experiment: Pre-planting sugar application on sugarbeets, Foxhome; format: in vivo, sugarbeet; conditions: for Recoverable Sugar Yield / Recoverable Sugar Yield Increase Compared to Check Average / Sugarbeet Yield: MN; for number of treatments showing yield improvement compared to check average: six rates (25-250 pounds/Acre) per sugar, thirty in all
Protocol: (§1) The field trials were conducted simultaneously in two different planting locations for each of the crops. One location was near the community of Foxhome in Wilkin County, Minnesota (hereafter referred to as “Foxhome”) while the second location was near the community of Hickson in Cass County, North Dakota (hereafter referred to as “Hickson”). The Foxhome and Hickson locations are on opposite sides of the Red River along the border of Minnesota and North Dakota and separated by a distance exceeding 40 miles. Generally, the Foxhome location has heavier clay loam soil conditions while Hickson has sandy loam soil conditions.
(§2) At each of the Foxhome and Hickson locations, a total of thirty two (32) treatments were conducted for each crop (sugarbeets, soybeans, corn, wheat). Each treatment was replicated four times arranged in a Randomized Complete Block (RCB) Design in the same field. Each replication consisted of a plot measuring twenty five (25) feet in length and eleven (11) feet in width. In selecting the particular seed types for evaluation, popular commercial varieties to the region were utilized. For the row crops (sugarbeets, soybeans, corn) each replication included a width of six (6) rows with twenty two (22) inch row spacing and having a row length of twenty five (25) feet. The wheat was planted in accordance with standard commercial practices. To reduce/eliminate any treatment impacts between adjacent plots for the crops, only the four (4) interior rows of each plot were treated and evaluated for row crops, while for wheat, only the interior 7.33 feet of each plot were treated and evaluated. With the exception of the treatment program applied to the individual plots, which will be discussed below, conventional commercial growing practices for each planting location were otherwise followed during the field trials.
(§3) The treatment regimen at each location for each of the tested crops included two (2) untreated treatments (Treatments 31 and 32) in which no sugar was applied and constitute the control elements. […] Six (6) treatments (Treatments 13-18) included the liquid application of high fructose corn syrup (hereafter “HFCS”) at varying rates. Six treatments (Treatments 19-24) included the liquid application of dextrose (hereafter “LIQDEX”) at varying rates. Six (6) treatments (Treatments 25-30) included the application of powdered cellulose (hereafter “POWCEL”) at varying rates. For the sugar applied in a solid form, granulated or powdered, field application was conducted via conventional broadcast spreading. For the sugar applied in a liquid form, a liquid concentrate was mixed and diluted with water in a tank and a conventional sprayer was configured such that the liquid was sprayed so as to have the same sugar equivalent (measured in pounds/per acre) as the sugar in solid form. Regardless of whether the sugar was applied as a solid or liquid, the sugar was applied directly onto the soil before spring tillage, lightly worked into the ground and followed by planting of the crop seed in the treated ground. A summary of application rates for each plot treatments are contained in Table 7 below and were used consistently with each of the crops (sugarbeets, soybeans, corn, wheat).
To test the impact of pre-planting application rates and sugar source on sugarbeets, identical field trials using Crystal® brand ACH 260 sugarbeet seed were conducted at the Foxhome and Hickson locations. Planting of the sugarbeet seed and harvest of the sugarbeets were conducted on as close to the same dates as practical so as to have essentially the same length growing season.

[2] = tested on: soybeans; experiment: Pre-planting sugar application on soybeans, Hickson; format: in vivo, soybean; conditions: for Yield / Yield Increase Compared to Check Average: ND
Protocol: as §1
as §2, with “trials. While the individual plots at the same location, Hickson or Foxhome, experienced essentially the same growing conditions throughout the season, there were various differences associated with localized precipitation, general growing conditions, soil classification and the like, which contributed to performance differences between the Hickson and Foxhome locations.” for “trials.”
as §3
(§4) To test the impact of pre-planting application rates and sugar source on soybeans, identical field trials using Syngenta brand soybean seed were conducted at the Foxhome and Hickson locations. Planting of the soybean seed and harvest of the soybeans were conducted on approximately the same dates so as to have essentially the same growing season. […]

[3] = tested on: corn; experiment: Pre-planting sugar application on corn, Hickson; format: in vivo; conditions: for Yield / Yield Increase Compared to Check Average: ND; for number of treatments showing yield improvement compared to check average: six rates (25-250 pounds/Acre) per sugar, thirty in all
Protocol: as §1
as §2, with “trials. While the individual plots at the same location, Hickson or Foxhome, experienced essentially the same growing conditions throughout the season, there were various differences associated with localized precipitation, general growing conditions, soil classification and the like, which contributed to performance differences between the Hickson and Foxhome locations.” for “trials.”
as §3
as §4, with “corn,” for “soybeans,”, “Peterson Farms” for “Syngenta”, “corn” for “soybean”, “corn” for “soybeans”, “on” for “on approximately”

[4] = tested on: wheat; experiment: Pre-planting sugar application on wheat, Hickson; format: in vivo; conditions: for Yield / Yield Increase Compared to Check: ND
Protocol: as §1
as §2, with “trials. While the individual plots at the same location, Hickson or Foxhome, experienced essentially the same growing conditions throughout the season, there were various differences associated with localized precipitation, general growing conditions, soil classification and the like, which contributed to performance differences between the Hickson and Foxhome locations.” for “trials.”
as §3
as §4, with “wheat,” for “soybeans,”, “Westbred Mayville wheat” for “Syngenta brand soybean”, “wheat” for “soybean”, “wheat” for “soybeans”, “on” for “on approximately”

[5] = six rates (25-250 pounds/Acre) per sugar, thirty in all

OC[C@H]1O[C@@](CO)(O[C@H]2O[C@H](CO)[C@@H](O)[C@H](O)[C@H]2O)[C@@H](O)[C@@H]1O [GS, sucrose]
Recoverable Sugar Yield ([1]; pre-planting 25 pounds/Acre): 8856 Pounds/Acre
Recoverable Sugar Yield Increase Compared to Check Average ([1]; pre-planting 25 pounds/Acre): 3.25%
Sugarbeet Yield ([1]; pre-planting 25 pounds/Acre): 32.03 Tons/Acre
Recoverable Sugar Yield ([1]; pre-planting 50 pounds/Acre): 8707 Pounds/Acre
Recoverable Sugar Yield Increase Compared to Check Average ([1]; pre-planting 50 pounds/Acre): 1.52%
Sugarbeet Yield ([1]; pre-planting 50 pounds/Acre): 32.27 Tons/Acre
Recoverable Sugar Yield ([1]; pre-planting 100 pounds/Acre): 8100 Pounds/Acre
Recoverable Sugar Yield Increase Compared to Check Average ([1]; pre-planting 100 pounds/Acre): −5.56%
Sugarbeet Yield ([1]; pre-planting 100 pounds/Acre): 30.85 Tons/Acre
Recoverable Sugar Yield ([1]; pre-planting 150 pounds/Acre): 9080 Pounds/Acre
Recoverable Sugar Yield Increase Compared to Check Average ([1]; pre-planting 150 pounds/Acre): 5.86%
Sugarbeet Yield ([1]; pre-planting 150 pounds/Acre): 31.94 Tons/Acre
Recoverable Sugar Yield ([1]; pre-planting 200 pounds/Acre): 8345 Pounds/Acre
Recoverable Sugar Yield Increase Compared to Check Average ([1]; pre-planting 200 pounds/Acre): −2.70%
Sugarbeet Yield ([1]; pre-planting 200 pounds/Acre): 30.69 Tons/Acre
Recoverable Sugar Yield ([1]; pre-planting 250 pounds/Acre): 9002 Pounds/Acre
Recoverable Sugar Yield Increase Compared to Check Average ([1]; pre-planting 250 pounds/Acre): 4.96%
Sugarbeet Yield ([1]; pre-planting 250 pounds/Acre): 31.80 Tons/Acre
number of treatments showing yield improvement compared to check average [1]: four of the six
Yield ([2]; pre-planting 25 pounds/Acre): 62.54 Bushels/Acre
Yield Increase Compared to Check Average ([2]; pre-planting 25 pounds/Acre): 1.28%
Yield ([2]; pre-planting 50 pounds/Acre): 63.6 Bushels/Acre
Yield Increase Compared to Check Average ([2]; pre-planting 50 pounds/Acre): 3.00%
Yield ([2]; pre-planting 100 pounds/Acre): 62.06 Bushels/Acre
Yield Increase Compared to Check Average ([2]; pre-planting 100 pounds/Acre): 0.50%
Yield ([2]; pre-planting 150 pounds/Acre): 64.21 Bushels/Acre
Yield Increase Compared to Check Average ([2]; pre-planting 150 pounds/Acre): 3.98%
Yield ([2]; pre-planting 200 pounds/Acre): 62.15 Bushels/Acre
Yield Increase Compared to Check Average ([2]; pre-planting 200 pounds/Acre): 0.65%
Yield ([2]; pre-planting 250 pounds/Acre): 61.12 Bushels/Acre
Yield Increase Compared to Check Average ([2]; pre-planting 250 pounds/Acre): −1.02%
number of treatments showing yield improvement compared to check average [2, 5]: five of the six
Yield ([3]; pre-planting 25 pounds/Acre): 188.56 Bushels/Acre
Yield Increase Compared to Check Average ([3]; pre-planting 25 pounds/Acre): 22.03%
Yield ([3]; pre-planting 50 pounds/Acre): 153.24 Bushels/Acre
Yield Increase Compared to Check Average ([3]; pre-planting 50 pounds/Acre): −0.83%
Yield ([3]; pre-planting 100 pounds/Acre): 165.78 Bushels/Acre
Yield Increase Compared to Check Average ([3]; pre-planting 100 pounds/Acre): 7.29%
Yield ([3]; pre-planting 150 pounds/Acre): 161.20 Bushels/Acre
Yield Increase Compared to Check Average ([3]; pre-planting 150 pounds/Acre): 4.32%
Yield ([3]; pre-planting 200 pounds/Acre): 163.58 Bushels/Acre
Yield Increase Compared to Check Average ([3]; pre-planting 200 pounds/Acre): 5.86%
Yield ([3]; pre-planting 250 pounds/Acre): 156.06 Bushels/Acre
Yield Increase Compared to Check Average ([3]; pre-planting 250 pounds/Acre): 1.00%
number of treatments showing yield improvement compared to check average [3]: five of the six
Yield ([4]; pre-planting 25 pounds/Acre): 51.82 Bushels/Acre
Yield Increase Compared to Check ([4]; pre-planting 25 pounds/Acre): 5.45%
Yield ([4]; pre-planting 50 pounds/Acre): 52.47 Bushels/Acre
Yield Increase Compared to Check ([4]; pre-planting 50 pounds/Acre): 6.78%
Yield ([4]; pre-planting 100 pounds/Acre): 49.94 Bushels/Acre
Yield Increase Compared to Check ([4]; pre-planting 100 pounds/Acre): 1.63%
Yield ([4]; pre-planting 150 pounds/Acre): 44.54 Bushels/Acre
Yield Increase Compared to Check ([4]; pre-planting 150 pounds/Acre): −9.36%
Yield ([4]; pre-planting 200 pounds/Acre): 50.25 Bushels/Acre
Yield Increase Compared to Check ([4]; pre-planting 200 pounds/Acre): 2.26%
Yield ([4]; pre-planting 250 pounds/Acre): 50.40 Bushels/Acre
Yield Increase Compared to Check ([4]; pre-planting 250 pounds/Acre): 2.56%
number of treatments showing yield improvement compared to check average [4, 5]: five of the six

OC[C@H]1O[C@@](CO)(O[C@H]2O[C@H](CO)[C@@H](O)[C@H](O)[C@H]2O)[C@@H](O)[C@@H]1O [LIQSUC, sucrose]
Recoverable Sugar Yield ([1]; pre-planting 25 pounds/Acre): 8629 Pounds/Acre
Recoverable Sugar Yield Increase Compared to Check Average ([1]; pre-planting 25 pounds/Acre): 0.61%
Sugarbeet Yield ([1]; pre-planting 25 pounds/Acre): 32.17 Tons/Acre
Recoverable Sugar Yield ([1]; pre-planting 50 pounds/Acre): 8627 Pounds/Acre
Recoverable Sugar Yield Increase Compared to Check Average ([1]; pre-planting 50 pounds/Acre): 0.58%
Sugarbeet Yield ([1]; pre-planting 50 pounds/Acre): 31.21 Tons/Acre
Recoverable Sugar Yield ([1]; pre-planting 100 pounds/Acre): 8592 Pounds/Acre
Recoverable Sugar Yield Increase Compared to Check Average ([1]; pre-planting 100 pounds/Acre): 0.17%
Sugarbeet Yield ([1]; pre-planting 100 pounds/Acre): 31.79 Tons/Acre
Recoverable Sugar Yield ([1]; pre-planting 150 pounds/Acre): 8646 Pounds/Acre
Recoverable Sugar Yield Increase Compared to Check Average ([1]; pre-planting 150 pounds/Acre): 0.80%
Sugarbeet Yield ([1]; pre-planting 150 pounds/Acre): 30.26 Tons/Acre
Recoverable Sugar Yield ([1]; pre-planting 200 pounds/Acre): 8473 Pounds/Acre
Recoverable Sugar Yield Increase Compared to Check Average ([1]; pre-planting 200 pounds/Acre): −1.21%
Sugarbeet Yield ([1]; pre-planting 200 pounds/Acre): 30.23 Tons/Acre
Recoverable Sugar Yield ([1]; pre-planting 250 pounds/Acre): 8424 Pounds/Acre
Sugarbeet Yield ([1]; pre-planting 250 pounds/Acre): 31.04 Tons/Acre
number of treatments showing yield improvement compared to check average [1]: four of the six
Yield ([2]; pre-planting 25 pounds/Acre): 61.90 Bushels/Acre
Yield Increase Compared to Check Average ([2]; pre-planting 25 pounds/Acre): 0.24%
Yield ([2]; pre-planting 50 pounds/Acre): 61.87 Bushels/Acre
Yield Increase Compared to Check Average ([2]; pre-planting 50 pounds/Acre): 0.19%
Yield ([2]; pre-planting 100 pounds/Acre): 59.52 Bushels/Acre
Yield Increase Compared to Check Average ([2]; pre-planting 100 pounds/Acre): −3.61%
Yield ([2]; pre-planting 150 pounds/Acre): 59.71 Bushels/Acre
Yield Increase Compared to Check Average ([2]; pre-planting 150 pounds/Acre): −3.30%
Yield ([2]; pre-planting 200 pounds/Acre): 61.36 Bushels/Acre
Yield Increase Compared to Check Average ([2]; pre-planting 200 pounds/Acre): −0.63%
Yield ([2]; pre-planting 250 pounds/Acre): 61.03 Bushels/Acre
Yield Increase Compared to Check Average ([2]; pre-planting 250 pounds/Acre): −1.17%
number of treatments showing negative yield benefits compared to check average ([2]; six rates per sugar): four of the six
Yield ([3]; pre-planting 25 pounds/Acre): 163.69 Bushels/Acre
Yield Increase Compared to Check Average ([3]; pre-planting 25 pounds/Acre): 5.93%
Yield ([3]; pre-planting 50 pounds/Acre): 162.57 Bushels/Acre
Yield Increase Compared to Check Average ([3]; pre-planting 50 pounds/Acre): 5.21%
Yield ([3]; pre-planting 100 pounds/Acre): 160.94 Bushels/Acre
Yield Increase Compared to Check Average ([3]; pre-planting 100 pounds/Acre): 4.15%
Yield ([3]; pre-planting 150 pounds/Acre): 165.35 Bushels/Acre
Yield Increase Compared to Check Average ([3]; pre-planting 150 pounds/Acre): 7.01%
Yield ([3]; pre-planting 200 pounds/Acre): 164.24 Bushels/Acre
Yield Increase Compared to Check Average ([3]; pre-planting 200 pounds/Acre): 6.29%
Yield ([3]; pre-planting 250 pounds/Acre): 166.53 Bushels/Acre
Yield Increase Compared to Check Average ([3]; pre-planting 250 pounds/Acre): 7.77%
number of treatments showing yield improvement compared to check average [3]: each of their six
Yield ([4]; pre-planting 25 pounds/Acre): 47.09 Bushels/Acre
Yield Increase Compared to Check ([4]; pre-planting 25 pounds/Acre): −4.17%
Yield ([4]; pre-planting 50 pounds/Acre): 53.46 Bushels/Acre
Yield Increase Compared to Check ([4]; pre-planting 50 pounds/Acre): 8.79%
Yield ([4]; pre-planting 100 pounds/Acre): 50.09 Bushels/Acre
Yield Increase Compared to Check ([4]; pre-planting 100 pounds/Acre): 1.93%
Yield ([4]; pre-planting 150 pounds/Acre): 46.03 Bushels/Acre
Yield Increase Compared to Check ([4]; pre-planting 150 pounds/Acre): −6.33%
Yield ([4]; pre-planting 200 pounds/Acre): 48.31 Bushels/Acre
Yield Increase Compared to Check ([4]; pre-planting 200 pounds/Acre): −1.69%
Yield ([4]; pre-planting 250 pounds/Acre): 50.24 Bushels/Acre
Yield Increase Compared to Check ([4]; pre-planting 250 pounds/Acre): 2.24%
